Experimental data taken from patent US12077503B2, “Substituted cyclic amides and their use as herbicides” (FMC CORPORATION, priority 2015, dated 2024).
Where two headings read alike, the source gives them in different places.

Columns and labels:
Type in all cases: in vivo
[1] = tested on: Kochia (Kochia scoparia); test: Test A preemergence; conditions: Bassia scoparia, pre-emergence, 240 h, read-out: Plant response rating, Kochia; for pest or weed control at 125 g/ha: 125 g ai/ha; for pest or weed control at 500 g/ha: 500 g ai/ha
Summary of the method: (§1)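 Ratings of 0 (no effect) to 100 (complete control) come from visual comparison with untreated controls roughly 10 d after treatment. Test chemicals, formulated in a non-phytotoxic solvent mixture with surfactant, were applied either as a preemergence directed soil spray on seeded soil or postemergence to one- to two-leaf plants 2 to 10 cm tall.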

[2] = tested on: barnyardgrass (Echinochloa crus-galli); test: Test A preemergence; conditions: Echinochloa crus-galli, pre-emergence, 240 h, read-out: Plant response rating, Barnyardgrass; for pest or weed control at 125 g/ha: 125 g ai/ha; for pest or weed control at 500 g/ha: 500 g ai/ha
Summary of the method: as §1

[3] = tested on: giant foxtail (Setaria faberii); test: Test A preemergence; conditions: Setaria faberi, pre-emergence, 240 h, read-out: Plant response rating, Foxtail, Giant; for pest or weed control at 125 g/ha: 125 g ai/ha; for pest or weed control at 500 g/ha: 500 g ai/ha
Summary of the method: as §1

[4] = tested on: pigweed (Amaranthus retroflexus); test: Test A preemergence; conditions: Amaranthus retroflexus, pre-emergence, 240 h, read-out: Plant response rating, Pigweed; for pest or weed control at 125 g/ha: 125 g ai/ha; for pest or weed control at 500 g/ha: 500 g ai/ha
[5] = tested on: ragweed (common ragweed, Ambrosia elatior); test: Test A preemergence; conditions: Ambrosia artemisiifolia, pre-emergence, 240 h, read-out: Plant response rating, Ragweed; for pest or weed control at 125 g/ha: 125 g ai/ha; for pest or weed control at 500 g/ha: 500 g ai/ha
Summary of the method: as §1

[6] = tested on: ryegrass, Italian (Italian ryegrass, Lolium multiflorum); test: Test A preemergence; conditions: Lolium multiflorum, pre-emergence, 240 h, read-out: Plant response rating, Ryegrass, Italian; for pest or weed control at 125 g/ha: 125 g ai/ha; for pest or weed control at 500 g/ha: 500 g ai/ha
Summary of the method: as §1

[7] = tested on: Kochia (Kochia scoparia); test: Test A postemergence; conditions: Bassia scoparia, post-emergence, 240 h; for pest or weed control at 125 g/ha: 125 g ai/ha
Summary of the method: as §1

[8] = tested on: barnyardgrass (Echinochloa crus-galli); test: Test A postemergence; conditions: Echinochloa crus-galli, post-emergence, 240 h, 125 g ai/ha, postemergence; visual injury after approximately 10 d; 0 to 100 scale (0 no effect, 100 complete control); read-out: Plant response rating, Barnyardgrass
Summary of the method: as §1

[9] = tested on: blackgrass (Alopecurus myosuroides); test: Test A postemergence; conditions: Alopecurus myosuroides, post-emergence, 240 h; for pest or weed control at 125 g/ha: 125 g ai/ha
Summary of the method: as §1

[10] = tested on: giant foxtail (Setaria faberii); test: Test A postemergence; conditions: Setaria faberi, post-emergence, 240 h; for pest or weed control at 125 g/ha: 125 g ai/ha
Summary of the method: as §1

[11] = tested on: ragweed (common ragweed, Ambrosia elatior); test: Test A postemergence; conditions: Ambrosia artemisiifolia, post-emergence, 240 h; for pest or weed control at 125 g/ha: 125 g ai/ha
Summary of the method: as §1

[12] = tested on: barnyardgrass (Echinochloa crus-galli); test: Test B flooded paddy test; conditions: Echinochloa crus-galli, Flood, 250 g ai/ha
Summary of the method: (§2)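 Compound goes directly into floodwater once pots are flooded 3 cm above soil, targeting plants at two leaves; the water depth is then held for the test duration. Plants sit 13–15 d in a greenhouse and are rated visually, 100 denoting complete control.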

[13] = tested on: ducksalad (Heteranthera limosa); test: Test B flooded paddy test; conditions: Heteranthera limosa, Flood, 250 g ai/ha
Summary of the method: as §2

[14] = tested on: rice (Oryra sativa); test: Test B flooded paddy test; conditions: Oryza sativa, Flood, 250 g ai/ha
Summary of the method: as §2

[15] = tested on: sedge, umbrella (small-flower umbrella sedge, Cyperus difformis); test: Test B flooded paddy test; conditions: Cyperus difformis, Flood, 250 g ai/ha
Summary of the method: as §2

[16] = preemergence, visual rating after approx. 10 d, 0 to 100 scale where 0 is no effect and 100 is complete control
[17] = preemergence, 0 to 100 scale, 0 = no effect, 100 = complete control
[18] = postemergence, visual injury after approximately 10 d, 0 to 100 scale (0 no effect, 100 complete control), read-out: Plant response rating, Kochia
[19] = postemergence, visual injury after approximately 10 d, 0 to 100 scale (0 no effect, 100 complete control), read-out: Plant response rating, Blackgrass
[20] = postemergence, visual injury after approximately 10 d, 0 to 100 scale (0 no effect, 100 complete control), read-out: Plant response rating, Foxtail, Giant
[21] = postemergence, visual injury after approximately 10 d, 0 to 100 scale (0 no effect, 100 complete control), read-out: Plant response rating, Ragweed
[22] = scale of 0 to 100 where 0 is no effect and 100 is complete control, read-out: Barnyardgrass plant response rating
[23] = scale of 0 to 100 where 0 is no effect and 100 is complete control, read-out: Ducksalad plant response rating
[24] = scale of 0 to 100 where 0 is no effect and 100 is complete control, read-out: Rice plant response rating
[25] = scale of 0 to 100 where 0 is no effect and 100 is complete control, read-out: Sedge, Umbrella plant response rating
[26] = preemergence, 0 to 100 scale (0 no effect, 100 complete control)
[27] = Preemergence, 0 to 100 scale (0 no effect, 100 complete control)

Question: For `C=CCN1C[C@H](c2ccc(OC)c(F)c2)[C@@H](C(=O)Nc2ccccc2C(F)(F)F)C1=O` [Compound 723], which pest or weed control at 125 g/ha [1, 16] is on record?
Answer: 0%

Question: And the pest or weed control at 500 g/ha [1, 17]?
Answer: 0%

Question: What about the pest or weed control at 125 g/ha [2, 16] of the same molecule?
Answer: 0%

Question: What about the pest or weed control at 500 g/ha [2, 17] of the same molecule?
Answer: 0%

Question: What about the pest or weed control at 125 g/ha [3, 16] of the same molecule?
Answer: 0%

Question: And the pest or weed control at 500 g/ha [3, 17]?
Answer: 50%

Question: And the pest or weed control at 125 g/ha [4, 16]?
Answer: 0%

Question: And the pest or weed control at 500 g/ha [4, 17]?
Answer: 0%

Question: And the pest or weed control at 125 g/ha [5, 16]?
Answer: 0%

Question: What about the pest or weed control at 500 g/ha [5, 17] of the same molecule?
Answer: 0%

Question: And the pest or weed control at 125 g/ha [6, 16]?
Answer: 0%

Question: And the pest or weed control at 500 g/ha [6, 17]?
Answer: 0%

Question: And the pest or weed control at 125 g/ha [7, 18]?
Answer: 0%

Question: What about the pest or weed control at 125 g/ha [8] of the same molecule?
Answer: 0%

Question: What about the pest or weed control at 125 g/ha [9, 19] of the same molecule?
Answer: 0%

Question: And the pest or weed control at 125 g/ha [10, 20]?
Answer: 0%

Question: What about the pest or weed control at 125 g/ha [11, 21] of the same molecule?
Answer: 0%

Question: What about the pest or weed control at 250 g/ha [12, 22] of the same molecule?
Answer: 0%

Question: What about the pest or weed control at 250 g/ha [13, 23] of the same molecule?
Answer: 0%

Question: And the pest or weed control at 250 g/ha [14, 24]?
Answer: 0%

Question: And the pest or weed control at 250 g/ha [15, 25]?
Answer: 0%

Question: With `O=C1NC[C@H](c2ccc3c(c2)OCO3)[C@H]1C(=O)Nc1cccc(F)c1F` [Compound 731] as the molecule, how does the pest or weed control at 125 g/ha [1, 16] read?
Answer: 0%

Question: And the pest or weed control at 500 g/ha [1, 17]?
Answer: 60%

Question: And the pest or weed control at 125 g/ha [2, 16]?
Answer: 80%

Question: What about the pest or weed control at 500 g/ha [2, 17] of the same molecule?
Answer: 90%

Question: And the pest or weed control at 125 g/ha [3, 16]?
Answer: 40%

Question: And the pest or weed control at 500 g/ha [3, 17]?
Answer: 90%

Question: And the pest or weed control at 125 g/ha [4, 16]?
Answer: 0%

Question: What about the pest or weed control at 500 g/ha [4, 17] of the same molecule?
Answer: 0%

Question: And the pest or weed control at 125 g/ha [5, 16]?
Answer: 0%

Question: And the pest or weed control at 500 g/ha [5, 17]?
Answer: 70%

Question: What about the pest or weed control at 125 g/ha [6, 16] of the same molecule?
Answer: 20%

Question: What about the pest or weed control at 500 g/ha [6, 17] of the same molecule?
Answer: 40%

Question: What about the pest or weed control at 125 g/ha [7, 18] of the same molecule?
Answer: 0%

Question: And the pest or weed control at 125 g/ha [8]?
Answer: 70%

Question: What about the pest or weed control at 125 g/ha [9, 19] of the same molecule?
Answer: 0%

Question: What about the pest or weed control at 125 g/ha [10, 20] of the same molecule?
Answer: 50%

Question: And the pest or weed control at 125 g/ha [11, 21]?
Answer: 0%

Question: And the pest or weed control at 250 g/ha [12, 22]?
Answer: 60%

Question: What about the pest or weed control at 250 g/ha [13, 23] of the same molecule?
Answer: 100%

Question: What about the pest or weed control at 250 g/ha [14, 24] of the same molecule?
Answer: 20%

Question: What about the pest or weed control at 250 g/ha [15, 25] of the same molecule?
Answer: 0%

Question: With `CN1C[C@H](c2ccc(C(F)(F)F)nc2)[C@@H](C(=O)Nc2ccc(F)c(F)c2F)C1=O` [Compound 1373] as the molecule, how does the pest or weed control at 500 g/ha [1, 26] read?
Answer: 100%

Question: And the pest or weed control at 125 g/ha [1, 27]?
Answer: 100%

Question: And the pest or weed control at 500 g/ha [2, 26]?
Answer: 100%

Question: And the pest or weed control at 125 g/ha [2, 27]?
Answer: 90%

Question: What about the pest or weed control at 500 g/ha [3, 26] of the same molecule?
Answer: 100%

Question: What about the pest or weed control at 125 g/ha [3, 27] of the same molecule?
Answer: 100%

Question: What about the pest or weed control at 500 g/ha [4, 26] of the same molecule?
Answer: 100%

Question: And the pest or weed control at 125 g/ha [4, 27]?
Answer: 90%

Question: What about the pest or weed control at 500 g/ha [5, 26] of the same molecule?
Answer: 100%

Question: What about the pest or weed control at 125 g/ha [5, 27] of the same molecule?
Answer: 100%

Question: What about the pest or weed control at 500 g/ha [6, 26] of the same molecule?
Answer: 90%

Question: What about the pest or weed control at 125 g/ha [6, 27] of the same molecule?
Answer: 60%

Question: And the pest or weed control at 125 g/ha ([7]; Postemergence, visual rating about 10 d after treatment, read-out: Kochia plant response rating (0 to 100 scale))?
Answer: 80%

Question: What about the pest or weed control at 500 g/ha ([7]; Postemergence, 500 g ai/ha, visual injury, 0 to 100 scale (0 no effect, 100 complete control), approx. 10 d, read-out: Plant response rating, Kochia) of the same molecule?
Answer: 80%

Question: What about the pest or weed control at 125 g/ha ([9]; Postemergence, visual rating about 10 d after treatment, read-out: Blackgrass plant response rating (0 to 100 scale)) of the same molecule?
Answer: 50%

Question: What about the pest or weed control at 500 g/ha ([9]; Postemergence, 500 g ai/ha, visual injury, 0 to 100 scale (0 no effect, 100 complete control), approx. 10 d, read-out: Plant response rating, Blackgrass) of the same molecule?
Answer: 60%

Question: What about the pest or weed control at 125 g/ha ([10]; Postemergence, visual rating about 10 d after treatment, read-out: Foxtail, Giant plant response rating (0 to 100 scale)) of the same molecule?
Answer: 90%

Question: What about the pest or weed control at 500 g/ha ([10]; Postemergence, 500 g ai/ha, visual injury, 0 to 100 scale (0 no effect, 100 complete control), approx. 10 d, read-out: Plant response rating, Foxtail, Giant) of the same molecule?
Answer: 90%

Question: And the pest or weed control at 125 g/ha ([11]; Postemergence, visual rating about 10 d after treatment, read-out: Ragweed plant response rating (0 to 100 scale))?
Answer: 60%

Question: And the pest or weed control at 500 g/ha ([11]; Postemergence, 500 g ai/ha, visual injury, 0 to 100 scale (0 no effect, 100 complete control), approx. 10 d, read-out: Plant response rating, Ragweed)?
Answer: 70%

Question: And the pest or weed control at 250 g/ha ([12]; 360 h, visually evaluated after 13 to 15 d, read-out: Plant response rating, Barnyardgrass (0 to 100 scale where 0 is no effect and 100 is complete control))?
Answer: 85%

Question: And the pest or weed control at 250 g/ha ([13]; 360 h, visually evaluated after 13 to 15 d, read-out: Plant response rating, Ducksalad (0 to 100 scale where 0 is no effect and 100 is complete control))?
Answer: 100%

Question: What about the pest or weed control at 250 g/ha ([14]; 360 h, visually evaluated after 13 to 15 d, read-out: Plant response rating, Rice (0 to 100 scale where 0 is no effect and 100 is complete control)) of the same molecule?
Answer: 0%

Question: What about the pest or weed control at 250 g/ha ([15]; 360 h, visually evaluated after 13 to 15 d, read-out: Plant response rating, Sedge, Umbrella (0 to 100 scale where 0 is no effect and 100 is complete control)) of the same molecule?
Answer: 0%
